Earlier results on one compound are cited in patent US10058532B2, “Methods of preventing progression to type 2 diabetes mellitus” (Vivus, Inc., priority 2013, dated 2018).

Like-named read-outs stand apart in the source and are kept apart here.

Take `CC1(C)O[C@@H]2[C@@H](CO[C@@]3(COS(N)(=O)=O)OC(C)(C)O[C@@H]23)O1` [Topiramate, 2,3:4,5-di-O-isopropylidene-β-D-fructopyranose sulfamate]: the solubility result is “freely soluble” (methanol and acetone); “slightly soluble” (pH 1 to pH 8 aqueous solutions); “sparingly soluble” (pH 9 to pH 12 aqueous solutions).
